These results are taken from patent US9593123B2, “Triazolo[4,5-D]pyrimidine derivatives” (Hoffmann-La Roche Inc., priority 2013, dated 2017).

One assay addresses human CB2 receptor (Homo sapiens (Human), UniProt P34972). Nature of the assay: cAMP assay, CHO cells expressing human CB2 receptors. It counts as cell-based. Conditions: functional cAMP assay, read-out: CB2 hcAMP EC50. The method, then: (§1) CHO cells expressing human CB1 or CB2 receptors are seeded 17-24 hours prior to the experiment 50.000 cells per well in a black 96 well plate with flat clear bottom (Corning Costar #3904) in DMEM (Invitrogen No. 31331), 1×HT supplement, with 10% fetal calf serum and incubated at 5% CO2 and 37° C. in a humidified incubator. The growth medium was exchanged with Krebs Ringer Bicarbonate buffer with 1 mM IBMX and incubated at 30° C. for 30 min. Compounds were added to a final assay volume of 100 μl and incubated for 30 min at 30° C. Using the cAMP-Nano-TRF detection kit the assay (Roche Diagnostics) was stopped by the addition of 50 μl lysis reagent (Tris, NaCl, 1.5% Triton X100, 2.5% NP40, 10% NaN3) and 50 μl detection solutions (20 μM mAb Alexa700-cAMP 1:1, and 48 μM Ruthenium-2-AHA-cAMP) and shaken for 2 h at room temperature. The time-resolved energy transfer is measured by a TRF reader (Evotec Technologies GmbH), equipped with a ND:YAG laser as excitation source. The plate is measured twice with the excitation at 355 nm and at the emission with a delay of 100 ns and a gate of 100 ns, total exposure time 10 s at 730 (bandwidth 30 nm) or 645 nm (bandwidth 75 nm), respectively. The FRET signal is calculated as follows: FRET=T730-Alexa730-P(T645-B645) with P=Ru730-B730/Ru645-B645, where T730 is the test well measured at 730 nM, T645 is the test well measured at 645 nm, B730 and B645 are the buffer controls at 730 nm and 645 nm, respectively. cAMP content is determined from the function of a standard curve spanning from 10 μM to 0.13 nM cAMP.
(§2) EC50 values were determined using Activity Base analysis (ID Business Solution, Limited). The EC50 values for a wide range of cannabinoid agonists generated from this assay were in agreement with the values published in the scientific literature.

Another assay has as its target human CB1 receptor (Homo sapiens (Human), UniProt P21554). Kind of assay: cAMP assay, CHO cells expressing human CB1 receptors. It counts as cell-based. Conditions: functional cAMP assay, read-out: CB1 hcAMP EC50. The protocol: as §1, §2

human CB2 receptor, sequence (P34972 whole entry): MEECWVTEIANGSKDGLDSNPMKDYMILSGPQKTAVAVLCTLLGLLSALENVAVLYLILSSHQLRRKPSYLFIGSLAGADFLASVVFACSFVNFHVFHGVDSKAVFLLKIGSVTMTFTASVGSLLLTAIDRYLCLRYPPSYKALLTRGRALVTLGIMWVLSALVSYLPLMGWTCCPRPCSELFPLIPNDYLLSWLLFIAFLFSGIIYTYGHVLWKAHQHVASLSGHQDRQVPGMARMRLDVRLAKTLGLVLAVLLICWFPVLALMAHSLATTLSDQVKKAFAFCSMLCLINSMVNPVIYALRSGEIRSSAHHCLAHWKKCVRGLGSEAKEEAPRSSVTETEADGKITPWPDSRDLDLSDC
human CB1 receptor, sequence (P21554 whole entry): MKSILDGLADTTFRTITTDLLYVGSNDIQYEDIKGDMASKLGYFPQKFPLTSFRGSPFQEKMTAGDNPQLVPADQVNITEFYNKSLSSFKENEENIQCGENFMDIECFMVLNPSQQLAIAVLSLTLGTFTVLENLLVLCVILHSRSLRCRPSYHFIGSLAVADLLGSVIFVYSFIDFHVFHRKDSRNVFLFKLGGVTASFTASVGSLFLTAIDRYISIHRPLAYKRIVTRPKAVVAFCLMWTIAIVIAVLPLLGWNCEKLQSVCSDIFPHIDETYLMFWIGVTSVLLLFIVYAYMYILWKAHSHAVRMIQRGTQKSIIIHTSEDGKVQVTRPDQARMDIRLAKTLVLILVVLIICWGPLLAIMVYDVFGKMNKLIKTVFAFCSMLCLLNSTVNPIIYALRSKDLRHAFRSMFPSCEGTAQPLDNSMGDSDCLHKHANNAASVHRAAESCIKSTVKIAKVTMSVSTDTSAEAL

As to `Cc1nnc(Cn2nnc3c(N4CCC(F)(F)C4)nc(O[C@@H](C)C(F)(F)F)nc32)o1` [Example 71, 2-[[7-(3,3-Difluoropyrrolidin-1-yl)-5-[(2S)-1,1,1-trifluoropropan-2-yl]oxytriazolo[4,5-d]pyrimidin-3-yl]methyl]-5-methyl-1,3,4-oxadiazole], the EC50 at human CB2 receptor was 214 nM; at human CB1 receptor it was over 10000 nM.
The matching figures for `CC(O)CSc1nc(N2CCC(F)(F)C2)c2nnn(Cc3ccccc3Cl)c2n1` (centres unmarked) [Example 90, 1-[3-[(2-Chlorophenyl)methyl]-7-(3,3-difluoropyrrolidin-1-yl)triazolo[4,5-d]pyrimidin-5-yl]sulfanylpropan-2-ol]: 15.6 nM and over 10000 nM.
For `CC(C)Oc1nc(N2CC[C@H](O)C2)c2nnn(Cc3ccccc3S(C)(=O)=O)c2n1` [Example 63, (3S)-1-[3-[(2-Methylsulfonylphenyl)methyl]-5-propan-2-yloxytriazolo[4,5-d]pyrimidin-7-yl]pyrrolidin-3-ol], in that order: 190 nM and over 10000 nM.
For `O[C@H]1CCN(c2nc(OCC(F)(F)F)nc3c2nnn3Cc2ccccc2Cl)C1` [Example 60, (3S)-1-[3-[(2-Chlorophenyl)methyl]-5-(2,2,2-trifluoroethoxy)triazolo[4,5-d]pyrimidin-7-yl]pyrrolidin-3-ol], in that order: 0.8 nM and over 10000 nM.
Take `CCOc1nc(N2CCC(F)(F)C2)c2nnn(Cc3ccccc3Cl)c2n1` [Example 44, 3-[(2-Chlorophenyl)methyl]-7-(3,3-difluoropyrrolidin-1-yl)-5-ethoxytriazolo[4,5-d]pyrimidine]: the figures for the EC50 at human CB2 receptor and on human CB1 receptor were 4 nM and over 10000 nM, respectively.
The matching figures for `C[C@H](Oc1nc(N2CCC(F)(F)C2)c2nnn(Cc3ccccc3S(C)(=O)=O)c2n1)C(F)(F)F` [Example 69, 7-(3,3-Difluoropyrrolidin-1-yl)-3-[(2-methylsulfonylphenyl)methyl]-5-[(2S)-1,1,1-trifluoropropan-2-yl]oxytriazolo[4,5-d]pyrimidine]: 3.2 nM and over 10000 nM.
For `C[C@H](Oc1nc(N2CCC(F)(F)C2)c2nnn(CCC(F)(F)F)c2n1)C(F)(F)F` [Example 75, 7-(3,3-Difluoropyrrolidin-1-yl)-5-[(2S)-1,1,1-trifluoropropan-2-yl]oxy-3-(3,3,3-trifluoropropyl)triazolo[4,5-d]pyrimidine], in that order: 4.3 nM and over 10000 nM.
For `Cc1noc(Cn2nnc3c(N4CCC(F)(F)C4)nc(O[C@@H](C)C(F)(F)F)nc32)n1` [Example 72, 5-[[7-(3,3-Difluoropyrrolidin-1-yl)-5-[(2S)-1,1,1-trifluoropropan-2-yl]oxytriazolo[4,5-d]pyrimidin-3-yl]methyl]-3-methyl-1,2,4-oxadiazole], in that order: 67.4 nM and over 10000 nM.
With `COCC(C)Oc1nc(N2CCC(F)(F)C2)c2nnn(Cc3ccccc3Cl)c2n1` (centres unmarked) [Example 57, 3-[(2-Chlorophenyl)methyl]-7-(3,3-difluoropyrrolidin-1-yl)-5-(1-methoxypropan-2-yloxy)triazolo[4,5-d]pyrimidine], the EC50 on human CB2 receptor was 8.8 nM; at human CB1 receptor, over 10000 nM.
The matching figures for `CC(F)(F)COc1nc(N2CCC(F)(F)C2)c2nnn(Cc3ccccc3Cl)c2n1` [Example 53, 3-[(2-Chlorophenyl)methyl]-5-(2,2-difluoropropoxy)-7-(3,3-difluoropyrrolidin-1-yl)triazolo[4,5-d]pyrimidine]: 5.5 nM and over 10000 nM.
Consider `CC(C)(C)Sc1nc(N2CCC(F)(F)C2)c2nnn(Cc3ccccc3Cl)c2n1` [Example 85, 5-tert-Butylsulfanyl-3-[(2-chlorophenyl)methyl]-7-(3,3-difluoropyrrolidin-1-yl)triazolo[4,5-d]pyrimidine], for which the EC50 was 0.9 nM at human CB2 receptor and 108 nM at human CB1 receptor.
As for `CN(c1nc(N2CCC(F)(F)C2)c2nnn(Cc3ccccc3Cl)c2n1)C(C)(C)C` [Example 15, N-tert-Butyl-3-[(2-chlorophenyl)methyl]-7-(3,3-difluoropyrrolidin-1-yl)-N-methyltriazolo[4,5-d]pyrimidin-5-amine], the EC50 stood at 2.2 nM on human CB2 receptor and 336 nM on human CB1 receptor.
The matching figures for `CCNc1nc(N2CCC(F)(F)C2)c2nnn(Cc3ccccc3Cl)c2n1` [Example 8, 3-[(2-Chlorophenyl)methyl]-7-(3,3-difluoropyrrolidin-1-yl)-N-ethyltriazolo[4,5-d]pyrimidin-5-amine]: 4.5 nM and over 10000 nM.
The matching figures for `CCCOc1nc(N2CCC(F)(F)C2)c2nnn(Cc3ccccc3Cl)c2n1` [Example 59, 3-[(2-Chlorophenyl)methyl]-7-(3,3-difluoropyrrolidin-1-yl)-5-propoxytriazolo[4,5-d]pyrimidine]: 0.9 nM and over 10000 nM.
As to `FC1(F)CCN(c2nc(C3CC3)nc3c2nnn3Cc2ccccc2Cl)C1` [Example 4, 3-[(2-Chlorophenyl)methyl]-5-cyclopropyl-7-(3,3-difluoropyrrolidin-1-yl)triazolo[4,5-d]pyrimidine], the EC50 stood at 1 nM on human CB2 receptor and 750 nM on human CB1 receptor.
The matching figures for `CC(C)Oc1nc(N2CC[C@H](O)C2)c2nnn(Cc3nnnn3C)c2n1` [Example 64, (3S)-1-[3-[(1-Methyltetrazol-5-yl)methyl]-5-propan-2-yloxytriazolo[4,5-d]pyrimidin-7-yl]pyrrolidin-3-ol]: 174 nM and over 10000 nM.
For `C[C@H](Oc1nc(N2CCC(F)(F)C2)c2nnn(Cc3nnnn3C)c2n1)C(F)(F)F` [Example 73, 7-(3,3-Difluoropyrrolidin-1-yl)-3-[(1-methyltetrazol-5-yl)methyl]-5-[(2S)-1,1,1-trifluoropropan-2-yl]oxytriazolo[4,5-d]pyrimidine], in that order: 42.3 nM and over 10000 nM.
For `CC(C)(C)Nc1nc(N2CCC(F)(F)C2)c2nnn(Cc3ccccc3Cl)c2n1` [Example 12, N-tert-Butyl-3-[(2-chlorophenyl)methyl]-7-(3,3-difluoropyrrolidin-1-yl)triazolo[4,5-d]pyrimidin-5-amine], in that order: 0.9 nM and 365 nM.
Turning to `CC(=O)N[C@H]1CCN(c2nc(OCC(C)(C)C)nc3c2nnn3Cc2ccccc2Cl)C1` [Example 77, N-[(3S)-1-[3-[(2-Chlorophenyl)methyl]-5-(2,2-dimethylpropoxy)triazolo[4,5-d]pyrimidin-7-yl]pyrrolidin-3-yl]acetamide], the EC50 at human CB2 receptor was 58.2 nM; on human CB1 receptor it was over 10000 nM.
For `CC(C)CS(=O)(=O)c1nc(N2CCC(F)(F)C2)c2nnn(Cc3ccccc3Cl)c2n1` [Example 94, 3-[(2-Chlorophenyl)methyl]-7-(3,3-difluoropyrrolidin-1-yl)-5-(2-methylpropylsulfonyl)triazolo[4,5-d]pyrimidine], in that order: 2.8 nM and over 10000 nM.
For `CC(C)(C)Nc1nc(N2CCC(F)(F)C2)c2nnn(Cc3ccccc3C(F)(F)F)c2n1` [Example 22, N-tert-Butyl-7-(3,3-difluoropyrrolidin-1-yl)-3-[[2-(trifluoromethyl)phenyl]methyl]triazolo[4,5-d]pyrimidin-5-amine], in that order: 2.1 nM and over 10000 nM.
For `O[C@H]1CCN(c2nc(OCC(F)(F)F)nc3c2nnn3Cc2ccccc2C(F)(F)F)C1` [Example 61, (3S)-1-[5-(2,2,2-Trifluoroethoxy)-3-[[2-(trifluoromethyl)phenyl]methyl]triazolo[4,5-d]pyrimidin-7-yl]pyrrolidin-3-ol], in that order: 7.5 nM and over 10000 nM.
Turning to `FC1(F)CCN(c2nc(N3CCOCC3)nc3c2nnn3Cc2ccccc2Cl)C1` [Example 14, 4-[3-[(2-Chlorophenyl)methyl]-7-(3,3-difluoropyrrolidin-1-yl)triazolo[4,5-d]pyrimidin-5-yl]morpholine], the EC50 on human CB2 receptor is 3.5 nM; at human CB1 receptor, over 10000 nM.
The matching figures for `CC(=O)N[C@H]1CCN(c2nc(O[C@@H](C)C(F)(F)F)nc3c2nnn3Cc2ccccc2Cl)C1` [Example 80, N-[(3S)-1-[3-[(2-Chlorophenyl)methyl]-5-[(2S)-1,1,1-trifluoropropan-2-yl]oxytriazolo [4,5-d]pyrimidin-7-yl]pyrrolidin-3-yl]acetamide]: 159 nM and over 10000 nM.
Turning to `FC1(F)CCN(c2nc(N3CCC3)nc3c2nnn3Cc2ccccc2Cl)C1` [Example 9, 5-(Azetidin-1-yl)-3-[(2-chlorophenyl)methyl]-7-(3,3-difluoropyrrolidin-1-yl)triazolo [4,5-d]pyrimidine], the EC50 came out at 1.6 nM at human CB2 receptor and 363 nM at human CB1 receptor.
